The experiment concerns human PBMC, CCR5-tropic HIV-1 replication, RT activity. The experiment can be described thus: HIV-1 replication inhibition in human PBMCs, dose response, cell-based, CCR5-tropic HIV-1, primary PBMCs (AID 504503).
One may read the IC50 as the concentration needed to halve the response being measured. Consider `COc1ccccc1Cn1c(O)cc2nn(-c3nc4ccccc4s3)c(=O)c-2c1C`, for which the IC50 is 3.93 µM.

For `COc1ccc(Cn2c(O)cc3nn(-c4nc5ccccc5s4)c(=O)c-3c2C)cc1`, the IC50 is 4.88 µM.

With `Cc1c2c(=O)n(-c3nc4ccccc4s3)nc-2cc(O)n1Cc1ccccc1Cl`, the IC50 is 5.16 µM.

In the case of `COc1ccc(CCn2c(O)cc3nn(-c4nc5ccccc5s4)c(=O)c-3c2C)cc1`, the IC50 was 5.11 µM.

Turning to `Cc1c2c(=O)n(-c3nc4ccccc4s3)nc-2cc(O)n1Cc1cccs1`, the IC50 is 10.5 µM.

For the compound `Cc1c2c(=O)n(-c3nc4ccccc4s3)nc-2cc(O)n1CCC(C)C`, the IC50 was 5.37 µM.

With `Cc1c2c(=O)n(-c3nc4ccccc4s3)nc-2cc(O)n1Cc1ccc(F)cc1`, the IC50 is 6.8 µM.

With `Cc1c2c(=O)n(-c3nc4ccccc4s3)nc-2cc(O)n1CCc1cccs1`, the IC50 is 16.6 µM.

Regarding `Cc1c2c(=O)n(-c3nc4ccccc4s3)nc-2cc(O)n1CCc1ccc(O)cc1`, the IC50 was 1.29 µM.

As for `Cc1c2c(=O)n(-c3nc4ccccc4s3)nc-2cc(O)n1Cc1ccncc1`, the half-inhibitory concentration (IC50) was 1.6 µM.

`Cc1c2c(=O)n(-c3nc4ccccc4s3)nc-2cc(O)n1Cc1cccnc1`: the IC50 is 2.82 µM.

For the compound `Cc1c2c(=O)n(-c3nc4ccccc4s3)nc-2cc(O)n1C1CC1`, the half-maximal inhibitory concentration (IC50) is 2.17 µM.
